Results published in patent publication US11993591B2, “Chromen-4-one derivatives for the treatment and prophylaxis of hepatitis B virus disease” (Hoffmann-La Roche Inc., priority 2018, dated 2024).

system: HBV (extracellular HBsAg) in primary human hepatocytes; assay: Cryopreserved Primary Human Hepatocytes (PHH) HBV infection assay; format: cell-based; settings: Hepatitis B virus, Hepatocyte, 216 h; extracellular HBsAg (CLIA), HBV-infected cryopreserved PHH, 9 days post-compound treatment
Description: This assay is used to confirm the anti-HBV effect of the compounds in HBV PHH infection assay. Cryopreserved PHH (BioreclamationIVT, Lot YJM) was thawed at 37° C. and gently transferred into pre-warmed InVitroGRO HT medium (BioreclamationIVT, Cat. S03317).
The mixture was centrifuged at 70 relative centrifugal force (RCF) for 3 mins at RT, and the supernatant was discarded. Pre-warmed InVitroGRO CP medium (BioreclamationIVT, Cat #S03316) was added to the cell pellet to gently re-suspend cells. The cells were seeded at the density of 5.8×10^4 cells per well to collagen I coated 96-well plate (Gibco, Cat. A1142803) with the InVitroGRO CP medium. All plates were incubated at 37° C. with 5% CO2 and 85% humidity.
At 20 hours after plating, the medium was changed to PHH culture medium (Dulbecco's Modified Eagle Medium (DMEM)/F12 (1:1) (Gibco, Cat. 11320-033), 10% fetal bovine serum (Gibco Cat. 10099141), 100 U/mL penicillin, 100 μg/mL streptomycin (Gibco, Cat. 151401-122), […] (Invitrogen Cat. PHG0311L), 20 ng/mL dexamethasone (Sigma, Cat. D4902) and 250 ng/mL human recombinant insulin (Gibco, Cat. 12585-014)). And the cells were incubated at 37° C. with 5% CO2 and 85% humidity for 4 hours. The medium was then changed to pre-warmed PHH culture medium containing 4% polyethylene glycol (PEG) MW8000 (Sigma, Cat. P1458-50ML) and 1% DMSO (Sigma, Cat. D2650). 5.8×10^6 genomic equivalents of HBV were added into the medium.
At 24 hours post-infection, the cells were gently washed with PBS and refreshed with PHH culture medium supplemented with 1% DMSO, and 0.25 mg/mL Matrix gel (Corning, Cat. 356237) at 200 μL per well. All plates were immediately placed in at 37° C. CO2 incubator. 24 hours later, serial dilutions of compounds made with DMSO were further diluted with the same culture medium (PHH culture medium supplemented with 1% DMSO and 0.25 mg/mL Matrix gel as described above) before they were added to the cells to reach desired final compound concentrations and 1% DMSO concentration. The medium containing the compounds were refreshed every three days.
At 9 days post-compound treatment, extracellular HBsAg level were measured with Chemiluminescence Immuno Assay (CLIA) kit (Autobio, HBsAg Quantitative CLIA). Extracellular HBV DNA was extracted by MagNA Pure 96 system (Roche) and then determined by quantitative PCR with the following primers and probe: […]
HBsAg IC50 and HBV DNA IC50 values were derived from the dose-response curve using 4 parameter logistic curve fit method.

Compound | IC50 [µM]
O=C(Nc1ccc(OCCOC2CC(C(=O)O)C2)cc1F)c1cc(=O)c2cccc(Cl)c2o1 (centres unmarked) [Example 1, 3-(2-(4-(8-chloro-4-oxo-chromene-2-carboxamido)-3-fluorophenoxy)ethoxy)cyclobutanecarboxylic Acid] | 2.86
Cc1cc(OCCOC2CC(C(=O)O)C2)ccc1NC(=O)c1cc(=O)c2cccc(Cl)c2o1 (centres unmarked) [Example 2, 3-(2-(4-(8-chloro-4-oxo-chromene-2-carboxamido)-3-methylphenoxy)ethoxy)cyclobutanecarboxylic Acid] | 4.36
O=C(Nc1ccc(OCCOC2CC(C(=O)O)C2)cc1C(F)(F)F)c1cc(=O)c2cccc(Cl)c2o1 (centres unmarked) [Example 5, 3-(2-(4-(8-chloro-4-oxo-chromene-2-carboxamido)-3-(trifluoromethyl)phenoxy)ethoxy)cyclobutanecarboxylic Acid] | 7.42
O=C(Nc1nnc(C(F)(F)F)s1)c1cc(=O)c2cccc(Cl)c2o1 [Example 6, 8-chloro-4-oxo-N-(5-(trifluoromethyl)-1,3,4-thiadiazol-2-yl)-chromene-2-carboxamide] | 9.53
O=C(NCc1ccc(Cl)cc1Cl)c1cc(=O)c2cccc(Cl)c2o1 [Example 9, 8-chloro-N-(2,4-dichlorobenzyl)-4-oxo-chromene-2-carboxamide] | 14.1
Cc1cc(Br)cnc1NC(=O)c1cc(=O)c2cccc(Cl)c2o1 [Example 10, N-(5-bromo-3-methylpyridin-2-yl)-8-chloro-4-oxo-chromene-2-carboxamide] | 24.3
O=C(Nc1ccc(Cl)cc1C(F)(F)F)c1cc(=O)c2cccc(Cl)c2o1 [Example 12, 8-chloro-N-(4-chloro-2-(trifluoromethyl)phenyl)-4-oxo-chromene-2-carboxamide] | 34.2
Cc1cc(Cl)ccc1NC(=O)c1cc(=O)c2cc(Cl)cc(Cl)c2o1 [Example 13, 6,8-dichloro-N-(4-chloro-2-methylphenyl)-4-oxo-chromene-2-carboxamide] | 36.3
COc1ccc2c(c1)CCN(C(=O)c1cc(=O)c3cccc(Cl)c3o1)C2 [Example 14, 8-Chloro-2-(6-methoxy-3,4-dihydro-1H-isoquinoline-2-carbonyl)chromen-4-one] | 36.3
Cc1ccccc1NC(=O)c1cc(=O)c2cccc(Cl)c2o1 [Example 15, 8-chloro-4-oxo-N-(o-tolyl)-chromene-2-carboxamide] | 37.6
O=C(c1cc(=O)c2cccc(Cl)c2o1)N1CCc2ccc(Cl)cc2C1 [Example 16, 8-Chloro-2-(7-chloro-3,4-dihydro-1H-isoquinoline-2-carbonyl)chromen-4-one] | 40.3
Cc1cc(C(=O)O)ccc1NC(=O)c1cc(=O)c2cccc(Cl)c2o1 [Example 18, 4-(8-chloro-4-oxo-chromene-2-carboxamido)-3-methylbenzoic Acid] | 43
Cc1cc(OCCOCC(=O)O)ccc1NC(=O)c1cc(=O)c2cccc(Cl)c2o1 [Example 19, 2-(2-(4-(8-chloro-4-oxo-chromene-2-carboxamido)-3-methylphenoxy)ethoxy)acetic Acid] | 31.6
O=C(O)C1CC(OCCOc2ccc3c(c2)CCN(c2cc(=O)c4cccc(Cl)c4o2)C3)C1 (centres unmarked) [Example 36, 3-[2-[[2-(8-chloro-4-oxo-chromen-2-yl)-3,4-dihydro-1H-isoquinolin-6-yl]oxy]ethoxy]cyclobutanecarboxylic Acid] | 0.61
O=C(O)C1CC(OCCOc2ccc3c(c2)CN(c2cc(=O)c4cccc(Cl)c4o2)C3)C1 (centres unmarked) [Example 37, 3-[2-[2-(8-chloro-4-oxo-chromen-2-yl)isoindolin-5-yl]oxyethoxy]cyclobutanecarboxylic Acid] | 1.06

system: HBV cccDNA (HBeAg level) in HepDES19 cells; assay: Engineered HepDES19 primary screen assay (HBeAg as surrogate marker for cccDNA); format: cell-based; settings: Hepatitis B virus, HepDES19, 120 h
Excerpt: The assay was employed to screen for novel cccDNA inhibitors. HepDES19 is a cccDNA-producing cell line. In this cell line, HBeAg in the cell culture supernatant as surrogate marker, as HBeAg production depends on cccDNA level and activity. HepDES19 is an engineered cell line which contains a 1.1 unit length HBV genome, and pgRNA transcription from the transgene is controlled by Tetracycline (Tet). In the absence of Tet, pgRNA transcription will be induced, but HBV e antigen (HBeAg) could not be produced from this pgRNA due to very short leader sequence before the HBeAg start codon and the start codon is disrupted. Only after cccDNA is formed, the missing leader sequence and start codon mutation would be restored from the 3′-terminal redundancy of pgRNA, and then HBeAg could be synthesized. Therefore, HBeAg could be used as a surrogate marker for cccDNA (Zhou, T. et al., Antiviral Res. (2006), 72(2), 116-124; Guo, H. et al., J. Virol. (2007), 81(22), 12472-12484).
HepDES19 cells were seeded at 2×10^6 cells per T150 flask and cultured with the culture medium (Dulbecco's Modified Eagle Medium: Nutrient Mixture F-12 [DMEM-F12, Gibco Cat. 11320-82], 10% Fetal Bovine Serum [FBS, Clontech Cat. 631101], 0.1 mM Non-Essential Amino Acids Solution [NEAA, Gibco Cat. 11140-050], 50 μg/mL Penicillin-Streptomycin [PS, Invitrogen Cat. 15140-163], 500 μg/mL Geneticin [G418, Invitrogen Cat. 10131-027]) containing 3 μg/mL Tet (Sigma, Cat. 87128) for 5 days. Cells were then seeded at 4×10^6 cells per T150 in the same culture medium as described above in the absence of Tet for 8 days. Cells were then harvested and frozen at density of 2×10^6 cells per mL. For compound testing, the frozen cells were thawed and seeded into 96-well plates at a density of 6×10^4 cells per well. At 24 hours after seeding, half log serial dilutions of compounds made with Dimethyl sulfoxide (DMSO, Sigma, Cat. D2650) were further diluted with the same culture medium as described above before they were added to the cells to reach desired final compound concentrations and 1% DMSO concentration. Plates were then incubated at 37° C. for another 5 days before measurement of HBeAg level and cell viability. Intracellular HBeAg level were measured with enzyme-linked immunosorbent assay (ELISA) kit (Shanghai Kehua Diagnostic Medical Products Co., Ltd). Cell viability was assessed using Cell Counting Kit-8 (Donjindo, Cat. CK04-20). IC50 values were derived from the dose-response curve using 4 parameter logistic curve fit method.
The compounds of the present invention were tested for their capacity to inhibit extracellular HBeAg level as described herein.

Compound | IC50 [µM]
COc1ccc2c(c1)C(=O)N(c1cc(=O)c3cccc(Cl)c3o1)C2 [Example 55, 2-(8-chloro-4-oxo-chromen-2-yl)-6-methoxyisoindolin-1-one] | 16.7
CN(Cc1ccc(OCCOC2CC(C(=O)O)C2)cc1)c1cc(=O)c2cccc(Cl)c2o1 (centres unmarked) [Example 56, 3-(2-(4-(((8-chloro-4-oxo-chromen-2-yl)(methyl)amino)methyl)phenoxy)ethoxy)cyclobutanecarboxylic acid] | 19.6
CC1c2ccc(O)cc2CCN1c1cc(=O)c2cccc(Cl)c2o1 (centres unmarked) [Example 57, 8-chloro-2-(6-hydroxy-1-methyl-3,4-dihydro-1H-isoquinolin-2-yl)chromen-4-one] | 20
O=C(O)C1CC(OCCOc2ccc3c(c2)CCN(c2cc(=O)c4cccc(Cl)c4o2)C3=O)C1 (centres unmarked) [Example 58, 3-(2-((2-(8-chloro-4-oxo-chromen-2-yl)-1-oxo-1,2,3,4-tetrahydroisoquinolin-6-yl)oxy)ethoxy)cyclobutanecarboxylic Acid] | 23.4
O=c1cc(-n2ccc(OCc3ccccc3)cc2=O)oc2c(Cl)cccc12 [Example 59, 4-(benzyloxy)-1-(8-chloro-4-oxo-chromen-2-yl)pyridin-2(1H)-one] | 24.4
O=C(O)C1CC(OCCOc2ccc(CNc3cc(=O)c4cccc(Cl)c4o3)cc2)C1 (centres unmarked) [Example 60, 3-(2-(4-(((8-chloro-4-oxo-chromen-2-yl)amino)methyl)phenoxy)ethoxy)cyclobutanecarboxylic Acid] | 30.8
O=c1c(I)c(N2CCC(O)CC2)oc2c(Cl)cccc12 [Example 61, 8-chloro-2-(4-hydroxypiperidin-1-yl)-3-iodo-chromen-4-one] | 30.9
CC(C)(C)OC(=O)N1CC2(C1)CN(c1cc(=O)c3cccc(Cl)c3o1)C2 [Example 62, Tert-butyl 6-(8-chloro-4-oxo-chromen-2-yl)-2,6-diazaspiro[3.3]heptane-2-carboxylate] | 33.2
COC(=O)c1cccc(C(=O)N2CC3(C2)CN(c2cc(=O)c4cccc(Cl)c4o2)C3)c1 [Example 63, Methyl 3-[6-(8-chloro-4-oxo-chromen-2-yl)-2,6-diazaspiro[3.3]heptane-2-carbonyl]benzoate] | 31.7
O=C(O)C1CC(OCCOc2ccc3c(c2)CN(c2cc(=O)c4cccc(Cl)c4o2)C3=O)C1 (centres unmarked) [Example 64, 3-(2-((2-(8-chloro-4-oxo-chromen-2-yl)-1-oxoisoindolin-5-yl)oxy)ethoxy)cyclobutanecarboxylic Acid] | 36.6
COc1ccc2c(c1)C(=O)N(c1cc(=O)c3cccc(Cl)c3o1)CC2 [Example 65, 2-(8-chloro-4-oxo-chromen-2-yl)-7-methoxy-3,4-dihydroisoquinolin-1-one] | 37.6
